Assay results published in patent US12215389B2, “Compositions for detecting epigenetic modifications” (EXACT SCIENCES CORPORATION, priority 2007, dated 2025).

Test system: methylated gene promoters in FFPE tissue DNA
Assay: Real-time MSP on colon tissue samples
Design: species or system human
Conditions: for Specificity (%) / Sensitivity (%): 50 cases (adenoma + carcinoma) vs 39 controls, tissue
Description: Real-time MSP was applied on a 7900HT fast real-time PCR system (Applied Biosystems). 2.4 μl of the modified DNA (equivalent to 2.5 μg unconverted DNA) was added to a PCR mix (total volume 12 μl) containing buffer (16.6 mM (NH4)2SO4, 67 mM Tris (pH 8.8), 6.7 mM MgCl2, 10 mM β-mercaptoethanol), dNTPs (5 mM), forward primer (6 ng), reverse primer (18 ng), molecular beacon (0.16 μM), BSA (0.1 μg), and Jumpstart DNA Taq polymerase (0.4 units; Sigma Aldrich). Cycle program used was as follows: 5 minutes 95° C., followed by 45 cycles of 30 seconds 95° C., 30 seconds 57° C. (51° C. for APC), and 30 seconds 72° C., followed by 5 minutes 72° C. A standard curve (2×106—20 copies) was included to determine copy numbers of unknown samples by interpolation of their Ct values to the standard curve.
Marker selection in colon tissue: Based on re-expression, 224 different gene assays representing 145 gene promotors were tested on the Base5 methylation profiling platform (data not shown, see reference 1 for details). The 37 most differentially methylated gene sequences assessing 29 gene promoters were validated on retrospectively collected tumors from 65 colorectal cancer patients (all stages) and 74 distant resection ends (histopathologically normal) using real-time MSP. Several markers reliably detected CRC in those tissue samples (data not shown). The results were confirmed on an independent test set containing 39 tissue controls (non-cancerous), 34 carcinomas and 16 adenomas. Several combinations of the tested markers reliably detected CRC with high specificity and sensitivity.
The ten best performing markers GATA5, GATA4, SFRP1, SFRP2, APC, MGMT, NDRG4, OSMR, JPH3 and ADAM23 were validated with primer sets and beacon probes as specified in Table 24. In addition to the colon test genes, the independent reference gene β-Actin (ACT) was also measured. The ratios between the colon test genes and ACT were calculated, and are the test result of the assay.
Marker candidates identified by re-expression were screened using 37 real-time methylation specific PCR (real-time MSP) assays. These assays were used to assess the methylation status of 29 gene promoters in 293 formalin-fixed paraffin-embedded (FFPE) tissue samples collected from various clinics. Samples included 99 carcinomas of various stages, 16 adenomas, 63 samples from patients with cancer other than CRC (20 breast [stages I-III], 22 bladder [stages I-III], 21 lung [stages I and II]), 39 samples from patients with no evidence of cancer and 76 distant resection ends (histopathologically normal) from CRC patients. These samples were divided into training and independent test sets, and used to select the gene methylation assays best able to discriminate between cancerous and non-cancerous samples. The training set included retrospectively collected tumors from 65 colorectal cancer patients (all stages) and 74 distant resection ends. Using the 10 best performing genes the results were confirmed on an independent test set containing 59 samples from patients with cancer other than CRC, 39 non-cancerous controls and 50 cancer cases (34 carcinomas and 16 adenomas).
The individual performance of the 10 best performing tissue markers OSMR, SFRP1, GATA4, SFRP2, NDRG4, ADAM23, GATA5, MGMT, APC and JPH3 is shown in FIG. 7, when the analytical cut-off was set to give 100% specificity, except for JPH3 where a specificity of 95% was obtained (based on the 39 non-cancerous controls). In addition to the colon test genes, the independent reference gene β-Actin (ACT) was also measured. The ratios between the colon test genes and ACT were calculated, and are the test result of the assay.

[1] = 16 adenoma tissue samples vs 39 controls
[2] = 34 carcinoma tissue samples vs 39 controls
[3] = second cut off ratio, between ( )

Row | Substance | Sensitivity [1] [%] | Specificity [1] [%] | Sensitivity [2] [%] | Specificity [2] [%] | Specificity (%) | Sensitivity (%) (first cut off ratio) | Sensitivity (%) [3]
1 | GATA5 (DNA AGTTCGTTTTTAGGTTAGTTTTCGGC; listed as DNA, chemistry not given here) | 63 | 100 | 53 | 100 | 100 | 56 | (66) %
2 | SFRP1 (DNA TGTAGTTTTCGGAGTTAGTGTCGCGC; listed as DNA, chemistry not given here) | 88 | 100 | 82 | 100 | 100 | 84 | (92) %
